Assay results: paper PMC6273621, “Synthesis and the Biological Activity of Phosphonylated 1,2,3-Triazolenaphthalimide Conjugates” (Molecules, 2016)
Where two headings read alike, the source gives them in different places.

Key:
[1] = system: murine leukemia (L1210) cells; test: Cytostatic activity, L1210 cell proliferation; type: cell-based; details: Mus musculus, read-out: IC50 L1210
Protocol: (§1) All assays were performed in 96-well microtiter plates. To each well were added (5–7.5) × 10^4 tumor cells and a given amount of the test compound. The cells were allowed to proliferate for 48 h (murine leukemia L1210 cells) or 72 h (human lymphocytic CEM and human cervix carcinoma HeLa cells) at 37 °C in a humidified CO2-controlled atmosphere. At the end of the incubation period, the cells were counted in a Coulter counter.

[2] = system: human dermal microvascular endothelial HMEC-1 cells; test: Cytostatic activity, HMEC-1 cell proliferation; type: cell-based
[3] = system: human T-lymphocyte (CEM) cells; test: Cytostatic activity, CEM cell proliferation; type: cell-based; details: CCRF-CEM, 72 h, read-out: IC50 CEM
Protocol: as §1

[4] = system: human cervix carcinoma cells (HeLa); test: Cytostatic activity, HeLa cell proliferation; type: cell-based; details: 72 h, read-out: IC50 HeLa
Protocol: as §1

## CCOP(=O)(CCn1cc(CN2C(=O)c3cccc4cccc(c34)C2=O)nn1)OCC [Compound 14b, Diethyl 2-{4-[(1,3-Dioxo-1H-benzo[de]isoquinolin-2(3H)-yl)methyl]-1H-1,2,3-triazol-1-yl}ethylphosphonate]
[1]; L1210, 48 h
  IC50: > 250 µM
other
  melting point: 63 to 64 °C
[2]; HMEC-1, read-out: IC50 HMEC-1
  IC50: > 250 µM
[3]
  IC50: 148 ± 59 µM
[4]
  IC50: 204 ± 65 µM

## CCOP(=O)(Cn1cc(CN2C(=O)c3cccc4cccc(c34)C2=O)nn1)OCC [Compound 14a]
[1]; L1210, 48 h
  IC50: > 250 µM
other
  melting point: 110 to 111 °C
[2]; HMEC-1, read-out: IC50 HMEC-1
  IC50: > 250 µM
[3]
  IC50: 187 ± 25 µM
[4]
  IC50: > 250 µM

## CCOP(=O)(COCCn1cc(CN2C(=O)c3cccc4cccc(c34)C2=O)nn1)OCC [Compound 14g, Diethyl 2-{4-[(1,3-Dioxo-1H-benzo[de]isoquinolin-2(3H)-yl)methyl]-1H-1,2,3-triazol-1-yl}ethoxy-methylphosphonate]
[1]; L1210, 48 h
  IC50: > 250 µM
other
  melting point: 154 to 155 °C
[2]; HMEC-1, read-out: IC50 HMEC-1
  IC50: ≥ 250 µM
[3]
  IC50: 168 ± 29 µM
[4]
  IC50: 215 ± 49 µM

## CCOP(=O)(CNC(=O)Cn1cc(CN2C(=O)c3cccc4cccc(c34)C2=O)nn1)OCC [Compound 14i, Diethyl 2-{4-[(1,3-Dioxo-1H-benzo[de]isoquinolin-2(3H)-yl)methyl]-1H-1,2,3-triazol-1-yl}acetamido-methylphosphonate]
[1]; L1210, 48 h
  IC50: > 250 µM
other
  melting point: 170 to 171 °C
[2]; HMEC-1, read-out: IC50 HMEC-1
  IC50: > 250 µM
[3]
  IC50: ≥ 250 µM
[4]
  IC50: > 250 µM

## CCOP(=O)(OCC)C(O)Cn1cc(CN2C(=O)c3cccc4c(Br)ccc(c34)C2=O)nn1 (centres unmarked) [Compound 15e, Diethyl 2-{4-[(6-Bromo-1,3-dioxo-1H-benzo[de]isoquinolin-2(3H)-yl)methyl]-1H-1,2,3-triazol-1-yl}-1-hydroxyethylphosphonate]
[1]; L1210, 48 h
  IC50: 42 ± 15 µM
other
  melting point: 198 to 200 °C
[2]; HMEC-1, read-out: IC50 HMEC-1
  IC50: > 250 µM
[3]
  IC50: 196 ± 60 µM
[4]
  IC50: > 250 µM

## C#CCN1C(=O)c2cccc3cccc(c23)C1=O [Compound 7, 2-(Prop-2-yn-1-yl)-1H-benzo[de]isoquinoline-1,3(2H)-dione]
[1]; L1210, cell proliferation, 48 h
  IC50: > 250 µM
other
  melting point: 239 to 240 °C
[2]; HMEC-1, cell proliferation, read-out: IC50 HMEC-1
  IC50: 138 ± 38 µM
[3]; cell proliferation
  IC50: 206 ± 42 µM
[4]; cell proliferation
  IC50: 48 ± 8 µM

## CCOP(=O)(CCCn1cc(CN2C(=O)c3cccc4c(Br)ccc(c34)C2=O)nn1)OCC [Compound 15c, Diethyl 3-{4-[(6-Bromo-1,3-dioxo-1H-benzo[de]isoquinolin-2(3H)-yl)methyl]-1H-1,2,3-triazol-1-yl}propylphosphonate]
[1]; L1210, 48 h
  IC50: 20 ± 3 µM
other
  melting point: 118 to 120 °C
[2]; HMEC-1, read-out: IC50 HMEC-1
  IC50: 152 µM
[3]
  IC50: 52 ± 34 µM
[4]
  IC50: 62 ± 1 µM

## CCOP(=O)(CC(O)Cn1cc(CN2C(=O)c3cccc4cccc(c34)C2=O)nn1)OCC (centres unmarked) [Compound 14f, Diethyl 3-{4-[(1,3-Dioxo-1H-benzo[de]isoquinolin-2(3H)-yl)methyl]-1H-1,2,3-triazol-1-yl}-2-hydroxypropylphosphonate]
[1]; L1210, 48 h
  IC50: > 250 µM
other
  melting point: > 260 °C
[2]; HMEC-1, read-out: IC50 HMEC-1
  IC50: > 250 µM
[3]
  IC50: 158 ± 4 µM
[4]
  IC50: 168 ± 26 µM

## CCOP(=O)(Cn1cc(CN2C(=O)c3cccc4c(Br)ccc(c34)C2=O)nn1)OCC [Compound 15a, Diethyl {4-[(6-Bromo-1,3-dioxo-1H-benzo[de]isoquinolin-2(3H)-yl)methyl]-1H-1,2,3-triazol-1-yl}methylphosphonate]
[1]; L1210, 48 h
  IC50: 28 ± 1 µM
other
  melting point: 158 to 159 °C
[2]; HMEC-1, read-out: IC50 HMEC-1
  IC50: 185 ± 40 µM
[3]
  IC50: 60 ± 27 µM
[4]
  IC50: 88 ± 5 µM

## CCOP(=O)(CNC(=O)Cn1cc(CN2C(=O)c3cccc4cc([N+](=O)[O-])cc(c34)C2=O)nn1)OCC [Compound 16i, Diethyl 2-{4-[(5-Nitro-1,3-dioxo-1H-benzo[de]isoquinolin-2(3H)-yl)methyl]-1H-1,2,3-triazol-1-yl}acetamido-methylphosphonate]
[1]; L1210, 48 h
  IC50: > 250 µM
other
  melting point: 217 to 219 °C
[2]; HMEC-1, read-out: IC50 HMEC-1
  IC50: > 250 µM
[3]
  IC50: > 250 µM
[4]
  IC50: 86 ± 6 µM
